In US5496947A, “Quinolone carboxylic acid derivatives” (Dong Wha Pharmaceutical Industrial Co., Ltd., priority 1994, dated 1996):
≈ marks a conversion by molar mass, not a printed value. Read-outs that look alike come from different tables or passages of the source.

Columns and labels:
Type in all cases: cell-based
[1] = tested on: Enterobacter aerogenes ATCC 13048; test: MIC, 2-fold dilution method in micro-well plate, E. aerogenes; conditions: Klebsiella aerogenes
Protocol: (§1) The in vitro antibiotic activity of the present compound is measured using 2-fold dilution method with a micro-well plate and the bacteria are inoculated in about 10^5 cfu/ml after an overnight culture in a brain-heart infusion (BHI) broth at 37° C. The novel compounds of the present invention are converted to a hydrochloride salt form and diluted with a sterilized distilled water to make 10 mg/ml aqueous solution. After the mother liquor wherein the compound is diluted to the two-fold concentration has been obtained in the form of an aqueous solution, the respective 0.1 ml of diluted liquor is transferred to a well and is inoculated with 0.1 ml of the culture fluid to make about (10^5 -10^6)/2 cfu/ml.
(§2) After cultivation at 37° C., the minimum inhibitory concentration (MIC) is measured and recorded in Table I-V.
(§3) Table I-V show the minimum inhibitory concentrations (MIC).
Enterobacter aerogenes ATCC 13048

[2] = tested on: Serratia marcescens ATCC 8100; test: MIC, 2-fold dilution method in micro-well plate, S. marcescens
Protocol: as §1, §2, §3
Serratia marcescens ATCC 8100

[3] = tested on: Streptococcus pneumoniae ATCC 6303; test: MIC, 2-fold dilution method in micro-well plate, S. pneumoniae; conditions: S. pneuinoniae ATCC6303, 37° C., read-out: Minimum Inhibitory Concentration
Protocol: as §1, §2, §3
Streptococcus pneumoniae ATCC 6303

[4] = tested on: Streptococcus faecalis ATCC 29212; test: MIC, 2-fold dilution method in micro-well plate, S. faecalis ATCC 29212; conditions: Enterococcus faecalis; S. faecalis ATCC29212, 37° C.; read-out: Minimum Inhibitory Concentration
Protocol: as §1, §2, §3
Streptococcus faecalis ATCC 29212

[5] = tested on: Haemophilus influenza ATCC 35056; test: MIC, 2-fold dilution method in micro-well plate, H. influenzae; conditions: H. influenzae ATCC35056, 37° C.; read-out: Minimum Inhibitory Concentration
Protocol: as §1, §2, §3
Haemophilus influenza ATCC 35056

[6] = tested on: Pseudomonas aeruginosa ATCC 27853; test: MIC, 2-fold dilution method in micro-well plate, P. aeruginosa
Protocol: as §1, §2, §3
Pseudomonas aeruginosa ATCC 27853

[7] = tested on: Streptococcus faecalis ATCC 19433; test: MIC, 2-fold dilution method in micro-well plate, S. faecalis ATCC 19433; conditions: Enterococcus faecalis; S. faecalis ATCC19433, 37° C.; read-out: Minimum Inhibitory Concentration
Protocol: as §1, §2, §3
Streptococcus faecalis ATCC 19433

[8] = tested on: Acinetobacter calcoaceticus; test: MIC, 2-fold dilution method in micro-well plate, A. calcoaceticus
Protocol: as §1, §2
Table I-V show the minimum inhibitory concentrations (MIC). […]

[9] = tested on: Proteus vulgaris ATCC 13315; test: MIC, 2-fold dilution method in micro-well plate, P. vulgaris
Protocol: as §1, §2, §3
Proteus vulgaris ATCC 13315

[10] = tested on: Klebsiella pneumoniae ATCC 13883; test: MIC, 2-fold dilution method in micro-well plate, K. pneumoniae; conditions: K. pneumoniae ATCC13883, 37° C., read-out: Minimum Inhibitory Concentration
Protocol: as §1, §2, §3
Klebsiella pneumoniae ATCC 13883

[11] = tested on: Escherichia coli ATCC 25922; test: MIC, 2-fold dilution method in micro-well plate, E. coli; conditions: E. coli ATCC25922, 37° C., read-out: Minimum Inhibitory Concentration
Protocol: as §1, §2, §3
Escherichia coli ATCC 25922

[12] = tested on: Shigella flexneri ATCC 12022; test: MIC, 2-fold dilution method in micro-well plate, S. flexneri; conditions: S. flexneri ATCC12022, 37° C., read-out: Minimum Inhibitory Concentration
Protocol: as §1, §2, §3
Shigella flexneri ATCC 12022

Enterobacter cloacae = test: MIC, 2-fold dilution method in micro-well plate, E. cloacae; conditions: read-out: Minimum Inhibitory Concentration
Protocol: as §1, §2, §3
Enterobacter cloacae ATCC 23355

[13] = tested on: Shigella sonnei ATCC 25931; test: MIC, 2-fold dilution method in micro-well plate, S. sonnei; conditions: S. sonnei ATCC25931, 37° C., read-out: Minimum Inhibitory Concentration
Protocol: as §1, §2, §3
Shigella sonnei ATCC 25931

[14] = tested on: Streptococcus pyrogens ATCC 19615; test: MIC, 2-fold dilution method in micro-well plate, S. pyrogens; conditions: S. pyrogenes ATCC19615, 37° C., read-out: Minimum Inhibitory Concentration
Protocol: as §1, §2, §3
Streptococcus pyrogens ATCC 19615

[15] = tested on: Citrobacter freundii ATCC 8090; test: MIC, 2-fold dilution method in micro-well plate, C. freundii
Protocol: as §1, §2, §3
Citrobacter freundii ATCC 8090

[16] = tested on: Salmonella typhimurium ATCC 14028; test: MIC, 2-fold dilution method in micro-well plate, S. typhimurium; conditions: Salmonella enterica, read-out: Minimum Inhibitory Concentration
Protocol: as §1, §2, §3
Salmonella typhimurium ATCC 14028

[17] = ATCC13048, read-out: Minimum Inhibitory Concentration
[18] = S. marcescens ATCC8100, 37° C., read-out: Minimum Inhibitory Concentration
[19] = P. aerugirnosa ATCC27853, 37° C., read-out: Minimum Inhibitory Concentration
[20] = ATCC8090, read-out: Minimum Inhibitory Concentration
[21] = P. vulgaris ATCC13315, 37° C., read-out: Minimum Inhibitory Concentration
[22] = C. freundii ATCC8090, 37° C., read-out: Minimum Inhibitory Concentration
[23] = E. aerogenes ATCC13048, 37° C., read-out: Minimum Inhibitory Concentration
[24] = A. calcoaceticus ATCC8090 (as in tables), 37° C., read-out: Minimum Inhibitory Concentration
[25] = E. cloacae ATCC23355 (as in tables), 37° C.

Structure (SMILES): Cl.NC1CCN(c2cc3c(cc2F)c(=O)c(C(=O)O)cn3-c2ccc(F)cn2)C1 (centres unmarked) [Example 21, 1-(5-fluoro-2-pyridyl)-6-fluoro-7-(3-amino-1-pyrrolidinyl)-1,4-dihydro-4-oxoquinoline-3-carboxylic acid hydrochloride]
- MIC [1, 17]: 0.156 µg/mL
- MIC [2, 18]: 0.078 µg/mL
- MIC [3]: 2.5 µg/mL
- MIC [4]: 1.25 µg/mL
- MIC [5]: 0.078 µg/mL
- MIC [6, 19]: 0.313 µg/mL
- MIC [7]: 1.25 µg/mL
- MIC [8, 20]: 0.156 µg/mL
- MIC [9, 21]: 0.078 µg/mL
- MIC [10]: 0.078 µg/mL
- MIC [11]: 0.078 µg/mL
- MIC [12]: 0.078 µg/mL
- MIC (Enterobacter cloacae): 0.156 µg/mL
- MIC [13]: 0.02 µg/mL
- MIC [14]: 2.5 µg/mL
- MIC [15, 22]: 0.078 µg/mL
- MIC [16]: 0.156 µg/mL

Structure (SMILES): Cl.O=C(O)c1cn(-c2ccncc2F)c2nc(N3CCNCC3)c(F)cc2c1=O [Example 7, 1-(3-fluoro-4-pyridyl)-6-fluoro-7-(1-piperazinyl)-1,4-dihydro-4-oxo-1,8-naphthyridine-3-carboxylic acid hydrochloride]
- MIC [1, 23]: 0.625 µg/mL
- MIC [2, 18]: 1.25 µg/mL
- MIC [3]: 2.5 µg/mL
- MIC [4]: 5 µg/mL
- MIC [5]: 0.313 µg/mL
- MIC ([6]; ATCC27853, read-out: Minimum Inhibitory Concentration): 0.625 µg/mL
- MIC [7]: 2.5 µg/mL
- MIC [8, 24]: 2.5 µg/mL
- MIC ([9]; ATCC13315, read-out: Minimum Inhibitory Concentration): 0.313 µg/mL
- MIC [10]: 0.625 µg/mL
- MIC [11]: 0.625 µg/mL
- MIC [12]: 0.156 µg/mL
- MIC (Enterobacter cloacae; [25]): 0.625 µg/mL
- MIC [13]: 0.313 µg/mL
- MIC [14]: 5 µg/mL
- MIC [15, 22]: 1.25 µg/mL
- MIC [16]: 0.313 µg/mL

Structure (SMILES): N[C@H]1CCN(c2cc3c(cc2F)c(=O)c(C(=O)O)cn3-c2ccncc2F)C1 [Example 6, 1-(3-fluoro-4-pyridyl)-6-fluoro-7-[(3S)-3-amino-1-pyrrolidinyl]-1,4-dihydro-4-oxoquinoline-3-carboxylic acid]
- MIC [1, 17]: 0.313 µg/mL (≈ 0.81 µM)
- MIC [2, 18]: 0.078 µg/mL (≈ 0.202 µM)
- MIC [3]: 2.5 µg/mL (≈ 6.47 µM)
- MIC [4]: 2.5 µg/mL (≈ 6.47 µM)
- MIC [5]: 0.313 µg/mL (≈ 0.81 µM)
- MIC [6, 19]: 0.156 µg/mL (≈ 0.404 µM)
- MIC [7]: 1.25 µg/mL (≈ 3.24 µM)
- MIC [8, 24]: 0.156 µg/mL (≈ 0.404 µM)
- MIC [9, 21]: 0.078 µg/mL (≈ 0.202 µM)
- MIC [10]: 0.156 µg/mL (≈ 0.404 µM)
- MIC [11]: 0.078 µg/mL (≈ 0.202 µM)
- MIC [12]: 0.313 µg/mL (≈ 0.81 µM)
- MIC (Enterobacter cloacae; [25]): 0.156 µg/mL (≈ 0.404 µM)
- MIC [13]: 0.02 µg/mL (≈ 0.0518 µM)
- MIC [14]: 2.5 µg/mL (≈ 6.47 µM)
- MIC [15, 20]: 0.313 µg/mL (≈ 0.81 µM)
- MIC ([16]; S. typhisurium ATCC14028, 37° C.): 0.156 µg/mL (≈ 0.404 µM)

Structure (SMILES): Cl.NC1CCN(c2cc3c(cc2F)c(=O)c(C(=O)O)cn3-c2ccncc2F)C1 (centres unmarked) [Example 5, 1-(3-fluoro-4-pyridyl)-6-fluoro-7-(3-amino-1-pyrrolidinyl)-1,4-dihydro-4-oxoquinoline-3-carboxylic acid hydrochloride]
- MIC [1, 23]: 0.156 µg/mL
- MIC ([2]; ATCC8100, read-out: Minimum Inhibitory Concentration): 0.313 µg/mL
- MIC [3]: 2.5 µg/mL
- MIC [4]: 2.5 µg/mL
- MIC [5]: 0.313 µg/mL
- MIC [6, 19]: 0.313 µg/mL
- MIC [7]: 2.5 µg/mL
- MIC [8, 20]: 0.313 µg/mL
- MIC [9, 21]: 0.078 µg/mL
- MIC [10]: 0.156 µg/mL
- MIC [11]: 0.156 µg/mL
- MIC [12]: 0.625 µg/mL
- MIC (Enterobacter cloacae): 0.313 µg/mL
- MIC [13]: 0.078 µg/mL
- MIC [14]: 5 µg/mL
- MIC [15, 20]: 0.313 µg/mL
- MIC [16]: 0.313 µg/mL
